# Reference: PubChem BioAssay (NCI)
# Where “and” joins values, the source holds several entries; their conditions need not be identical. Identical values can stand only once.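 Dose response: 5 concentrations. Exposure: 48 h. Format: 96-well plates. Endpoint: linear interpolation; highest concentration if not reached. The concentration for 50% growth inhibition is given as GI50. TGI is the concentration that stops growth completely.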
# What was measured:
# Assay in all cases: NCI anticancer screen, dose series, 48 h
# NCI-H460 lung = test system: NCI-H460 lung
# LOX IMVI melanoma = test system: LOX IMVI melanoma
# SK-MEL-28 melanoma = test system: SK-MEL-28 melanoma
# M14 melanoma = test system: M14 melanoma
# BT-549 breast = test system: BT-549 breast
# SW-620 colon = test system: SW-620 colon
# COLO 205 colon = test system: COLO 205 colon
# MOLT-4 leukemia = test system: MOLT-4 leukemia
# HOP-62 NSCLC = test system: HOP-62 NSCLC
# HCT-116 colon = test system: HCT-116 colon
Compound,GI50 (NCI-H460 lung),TGI (NCI-H460 lung),GI50 (LOX IMVI melanoma),TGI (LOX IMVI melanoma),GI50 (SK-MEL-28 melanoma),TGI (SK-MEL-28 melanoma),GI50 (M14 melanoma),TGI (M14 melanoma),GI50 (BT-549 breast),TGI (BT-549 breast),GI50 (SW-620 colon),TGI (SW-620 colon),GI50 (COLO 205 colon) [µM],TGI (COLO 205 colon),GI50 (MOLT-4 leukemia),TGI (MOLT-4 leukemia),GI50 (HOP-62 NSCLC),TGI (HOP-62 NSCLC),GI50 (HCT-116 colon),TGI (HCT-116 colon)
CCOC(=O)C1=C(C)N(c2ccc(Cl)cc2)[C@]2(C#N)C(O)=C(Cl)C(Cl)=C(O)[C@]12C#N,> 100 µM,> 100 µM,4.95 µM,> 100 µM,> 100 µM,> 100 µM,49.7 µM,> 100 µM,1.57 µM,33.4 µM,66.3 µM,> 100 µM,59.6,> 100 µM,> 100 µM,> 100 µM,> 100 µM,> 100 µM,90 µM,> 100 µM
CN1CCN(C(=O)c2cc(-c3ccc4ncnc(N5CCc6cc(F)c(Cl)cc65)c4c3)cnc2N)CC1,0.224 µM,9.14 µM,0.192 µM,1.44 µM,0.24 µM,3.61 µM,0.338 µM,4.75 µM,0.181 µM,1.57 µM,0.315 µM,1.82 µM,0.446,3.5 µM,0.127 µM,0.664 µM,0.244 µM,4.46 µM,0.237 µM,2.89 µM
O=C(O)c1ccc(C(=O)c2ccccc2)c(C(=O)O)c1,–,> 100 µM,–,> 100 µM,–,> 100 µM,–,> 100 µM,–,> 100 µM,–,> 100 µM,–,> 100 µM,–,> 100 µM,–,> 100 µM,–,> 100 µM
CC(=O)/C=C/c1cn(C(=O)OC(C)(C)C)c2ccc(Br)cc12,17 µM,36.4 µM,10.7 µM,25.2 µM,25.9 µM,> 68.1 µM,30.1 µM,> 100 µM,5.87 µM,26.4 µM,19.1 µM,39 µM,19.5,42.1 µM,41.6 µM,> 100 µM,15.8 µM,30.4 µM,8.39 µM,21.6 µM
COc1cc2c(cc1OCCCn1c(-c3ccccn3)nc3ccccc31)N=C[C@@H]1CCCN1C2=O,1.88 µM,4.34 µM,1.71 µM,6.16 µM,5.01 µM,11.6 µM,0.92 µM,2.8 µM,1.6 µM,4.87 µM,2.47 µM,8.33 µM,2.22,4.9 µM,4.38 µM,> 28.6 µM,2.92 µM,9.57 µM,1.35 µM,7.56 µM
O=C1c2c(c3c4ccccc4[nH]c3c3ccc4ccccc4c23)C(=O)N1CCN1CCNCC1,1.1 µM,2.6 µM,1.63 µM,3.11 µM,1.68 µM,3.1 µM,1.67 µM,3.24 µM,1.58 µM,2.97 µM,1.49 µM,3.16 µM,1.78,3.6 µM,0.487 µM,1.88 µM,1.81 µM,3.69 µM,1.59 µM,3.06 µM
CCc1ccc2c(c1)N(CCO)C1=C(C(=O)OC1)C2c1cccc(Br)c1 (centres undefined),0.397 µM,11.9 µM,0.663 µM,17.2 µM,0.473 µM,14.3 µM,0.525 µM,10.8 µM,1.35 µM,19.7 µM,0.35 µM,18.7 µM,0.358,1.42 µM,0.62 µM,19.3 µM,0.462 µM,14.5 µM,0.449 µM,14 µM
O=S(=O)(Nc1cc(Sc2cccc3cccnc23)c(O)c2ccccc12)c1ccc(F)cc1,0.59 µM,11 µM,0.624 µM,2.82 µM,1.56 µM,4.16 µM,1.27 µM,3.53 µM,3.04 µM,13.7 µM,1.41 µM,3.86 µM,1.69,3.51 µM,0.432 µM,3.21 µM,2.05 µM,17 µM,0.604 µM,2.13 µM
CN1C(=O)N(C)C2C1NN=c1s/c(=C\c3ccc(C(F)(F)F)cc3)c(=O)n12 (centres undefined),0.715 µM,> 100 µM,0.854 µM,> 100 µM,10.2 µM,> 100 µM,1.36 µM,> 100 µM,3.66 µM,> 100 µM,0.659 µM,> 100 µM,0.776,4.72 µM,2.55 µM,> 100 µM,1.31 µM,20.1 µM,1.55 µM,> 100 µM
O=C(O)CN1CCN(CC(=O)O)CC(=O)[O][Hg][O]C(=O)C1,19.8 µM,> 54.2 µM,10.3 µM,26.7 µM,19.2 µM,34.8 µM,16.4 µM,31 µM,19.5 µM,34.8 µM,19.6 µM,52.7 µM,17.8,32.5 µM,9.02 µM,31.9 µM,25.1 µM,> 66.2 µM,17.9 µM,33.7 µM
OCc1ccc(N2CCCC2c2ccccc2)cc1Cl (centres undefined),0.833 µM,7.22 µM,9.67 µM,22.5 µM,8.16 µM,24.6 µM,5.24 µM,21.3 µM,7.12 µM,18.7 µM,2.8 µM,27.7 µM,3.26,11.8 µM,4.75 µM,24.9 µM,3.69 µM,15.8 µM,0.744 µM,10.6 µM
CN=c1ccc2nc3ccc(N)cc3sc-2c1,3.86 µM,> 100 µM,1.87 µM,9.58 µM,7.36 µM,24.1 µM,2.04 µM,10.8 µM,11.5 µM,44.4 µM,2.89 µM,20.2 µM,2.57,12.2 µM,1.77 µM,6.86 µM,6.8 µM,27.3 µM,1.29 µM,10.3 µM
C=CC(=O)Nc1cccc(Oc2nc(Nc3ccc(N4CCN(C)CC4)cc3)nc3ccsc23)c1,3.26 µM and 3.19 µM,> 10 µM and 12.6 µM,1.69 µM and 1.75 µM,3.09 µM and 3.33 µM,1.87 µM and 1.89 µM,3.49 µM and 3.71 µM,1.87 µM and 2.01 µM,3.75 µM and 3.8 µM,2.8 µM and 3.62 µM,> 10 µM and 14.6 µM,2.07 µM and 1.92 µM,4.61 µM and 4.07 µM,2.19,5.27 µM,2.53 µM and 1.72 µM,7.08 µM and 5.53 µM,3.71 µM and 3.73 µM,> 10 µM and 15.7 µM,1.48 µM and 1.81 µM,2.93 µM and 3.33 µM
O=C(NN1C(=O)CSC12CCCCC2)c1[nH]c2ccc(Br)cc2c1-c1ccccc1,20.7 µM,57.9 µM,22 µM,50.3 µM,24.8 µM,69 µM,27 µM,79.7 µM,20.1 µM,44.4 µM,34.7 µM,> 100 µM,26.9,> 100 µM,8.79 µM,46.9 µM,23.6 µM,51.4 µM,16.4 µM,35.3 µM
O=C1/C(=C/c2ccccc2[N+](=O)[O-])Cc2ccccc21,1.15 µM,13.1 µM,1.88 µM,4.39 µM,2.1 µM,4.2 µM,1.97 µM,3.96 µM,1.83 µM,4.49 µM,1.27 µM,3.22 µM,1.3,2.57 µM,2.92 µM,9.04 µM,3 µM,17.2 µM,1.23 µM,2.57 µM
NC(=O)c1csc(C2OC(CO)C(O)C2O)n1 (centres undefined),–,> 10000 µM,> 53.2 µM,7900 µM,> 80.6 µM and 17.2 µM,1690 µM,10.2 µM,5650 µM,> 60.7 µM,> 10000 µM,30.6 µM,5900 µM,4.76,> 31.6 µM and 6210 µM,17.8 µM,3600 µM,44.7 µM,3110 µM,–,6870 µM
O=S(=O)(c1ccc(Cl)cc1)C(Cl)(Cl)Cl,3.79 µM,17 µM,1.77 µM,6.58 µM,4.47 µM,24 µM,1.63 µM,4.32 µM,1.4 µM,7.48 µM,2.58 µM,11.7 µM,3.38,> 53.4 µM,0.91 µM,> 44.3 µM,8.12 µM,> 49.5 µM,2.43 µM,11.3 µM
C[C@@H]1CN(Cc2ccc(F)cc2)[C@@H](C)CN1C(=O)c1cc2c(C(=O)C(=O)N(C)C)cn(C)c2cc1Cl,16.8 µM,37.4 µM,14.2 µM,28.4 µM,13 µM,35.2 µM,13.4 µM,36.6 µM,15.2 µM,41.8 µM,24 µM,> 84.9 µM,7.66,25.4 µM,17.9 µM,45.5 µM,18.7 µM,48.9 µM,21.6 µM,> 71.9 µM
N#Cc1c(N2CCOCC2)nc(=S)[nH]c1-c1ccco1,4.4 µM,> 100 µM,6.68 µM,> 100 µM,8.45 µM,> 100 µM,12.2 µM,> 100 µM,3.15 µM,18.1 µM,23.5 µM,> 100 µM,5.7,70.3 µM,4.64 µM,51.1 µM,2.95 µM,9.16 µM,15.6 µM,> 100 µM
CC1=C2[C@@H](CC1)[C@]1(C)O[C@@](c3ccccc3)(C[C@H]1OC(=O)CO)[C@H]2OC(=O)/C=C/c1ccccc1,16 µM,38.2 µM,15.9 µM,32.3 µM,18.1 µM,42.2 µM,15.8 µM,39.1 µM,0.487 µM,15.8 µM,21.9 µM,60 µM,16,33.6 µM,13 µM,45.1 µM,17.1 µM,37.3 µM,15.4 µM,31.6 µM
COc1ccccc1-c1cc(=O)c2cc(C)cnc2[nH]1,32.6 µM,> 100 µM,–,> 100 µM,–,> 100 µM,–,> 100 µM,–,> 100 µM,–,> 100 µM,–,52.5 µM,–,> 100 µM,–,> 100 µM,42.8 µM,> 100 µM
COc1cc2c(c(OC)c1OC)-c1ccc(SC)c(=O)cc1C(NC(=O)c1ccccc1)CC2 (centres undefined),–,1.62 µM,–,62.2 µM,–,> 63.1 µM,–,30.3 µM,–,> 31.6 µM,–,34.7 µM,–,< 0.01 µM,–,43.4 µM,–,21.1 µM,–,0.188 µM
c1cnn2ncc(-c3ccnc(NCCCN4CCOCC4)n3)c2c1,6.56 µM,> 25 µM,5.18 µM,> 25 µM,5.65 µM,> 18 µM,8.63 µM,> 25 µM,7.5 µM,> 25 µM,6.66 µM,> 25 µM,3.9,7.96 µM,9.61 µM,> 25 µM,5.76 µM,> 16.6 µM,7.25 µM,> 25 µM
COc1cccc(OC(=O)c2ccc(C(F)(F)F)nc2Nc2cc(Cl)ccc2C)c1,2.92 µM,15.4 µM,3.68 µM,23.8 µM,9.26 µM,> 100 µM,19.3 µM,56.6 µM,7.63 µM,41.7 µM,5.31 µM,50.7 µM,4.04,> 100 µM,3.11 µM,7.99 µM,15.6 µM,36.1 µM,16.9 µM,55.8 µM
Cc1ccc(/C=N\NC(=O)c2[nH]c3ccc(F)cc3c2-c2ccccc2)cc1,0.0345 µM,> 37.9 µM,0.0339 µM,> 100 µM,1.15 µM,> 100 µM,0.0275 µM,–,0.034 µM,7.29 µM,0.0428 µM,> 100 µM,0.0186,0.0343 µM,0.0421 µM,> 39.5 µM,0.0422 µM,5.88 µM,0.027 µM,0.855 µM
